Tested on: human MET
Assay: MET biochemical kinase assay
Design: concentration or dose not given beside the values
From the text: (d) MET Biochemical Kinase Assay
A met biochemical kinase assay may be performed for met generally as described above for other kinases by substituting that or the other kinases. In particular, ELISA plates are coated with goat anti-rabbit Fc antibodies, which are used to capture commercially available (from Santa Cruz Biotechnology) rabbit polyclonal antibodies to the cytoplasmic domain of human MET. […] The chimeric receptors, or MET, from these lysates are captured on the antibody coated plates. After washing away extraneous proteins, test compounds are added and an in vitro kinase assay is performed by addition of an appropriate kinase buffer (containing ATP, divalent metal ions, etc.). Incorporation of phosphate into the captured receptors is detected with an anti-phosphotyrosine antibody conjugate with horse radish peroxidase using TMB as a substrate for calorimetric detection.

Row | Met Kinase % Inhibition | Structure (SMILES)
1 | 61.0% | CCOC(=O)c1cc(C=C2C(=O)Nc3ccc(CCCl)cc32)oc1C [10718/G06]
2 | −2.4% | Cc1cc(C)c(C=C2C(=O)Nc3ccc(CCCl)cc32)[nH]1 [10721/G08]
3 | 5.7% | CC(C)(C)c1cc(C=C2C(=O)Nc3c(Br)cc(Br)cc32)ccc1OCc1ccccc1 [10732/A06]
4 | 52.0% | COC(=O)c1[nH]c(C)c(C=C2C(=O)Nc3ccc(CCCl)cc32)c1C(=O)OC [10718/G07]
5 | 1.8% | CC(C)(C)c1cc(C=C2C(=O)Nc3ccc(CCCl)cc32)cc(C(C)(C)C)c1OCc1ccccc1 [10733/G05]
6 | 59.0% | O=C1Nc2ccc(S(=O)(=O)Nc3ccc(C(F)(F)F)cc3)cc2C1=Cc1c[nH]c(=O)[nH]c1=O [10731/E08]
7 | 1.6% | O=C1Nc2ccc(S(=O)(=O)N3CCOCC3)cc2C1=Cc1ncc[nH]1 [10720/F11]
8 | −3.0% | COc1cccc(C=C2C(=O)Nc3ccc(S(=O)(=O)N4CCOCC4)cc32)c1OC [10727/F11]
9 | −7.4% | Cc1cn(C)cc1C=C1C(=O)Nc2ccc(S(=O)(=O)Nc3ccc(C(F)(F)F)cc3)cc21 [10726/E06]
10 | 41.0% | Cc1ccc(C=C2C(=O)Nc3ccc(S(=O)(=O)Nc4ccc(C(F)(F)F)cc4)cc32)s1 [10717/E07]
11 | 8.6% | O=C1Nc2ccc(CCCl)cc2C1=Cc1cc2c([nH]1)CCCC2 [10721/G05]
12 | −5.4% | COc1cccc(C=C2C(=O)Nc3ccc(S(=O)(=O)Nc4ccc(C(F)(F)F)cc4)cc32)c1OC [10727/E11]
13 | 60.0% | CC(C)(C)c1cc(C=C2C(=O)Nc3c(Br)cc(Br)cc32)c(O)c(C(C)(C)C)c1 [10723/A11]
14 | 6.7% | CC(C)(C)c1cc(C=C2C(=O)Nc3ccc(I)cc32)cc(C(C)(C)C)c1O [10721/B11]
15 | 26.0% | O=C1Nc2ccc(CCCl)cc2C1=Cc1cccc(Oc2ccccc2)c1 [10729/G06]
16 | 68.0% | O=C1Nc2c(Br)cc(Br)cc2C1=Cc1cc(Cl)ccc1O [10734/A04]
17 | 84.0% | CCc1ccc(C=C2C(=O)Nc3ccc(S(=O)(=O)Nc4ccc(C(F)(F)F)cc4)cc32)o1 [10724/E10]
18 | 71.0% | C=C(C)C1CC=C(C=C2C(=O)Nc3ccc(I)cc32)CC1 (stereo not drawn) [10731/B04]
19 | 8.5% | Cc1cc(C=C2C(=O)Nc3ccc(CCCl)cc32)cc(C)c1OCc1ccccc1 [10733/G07]
20 | 3.7% | Cc1c(Br)ccc2c1C(=Cc1cc(C(C)(C)C)c(O)c(C(C)(C)C)c1)C(=O)N2 [10721/C11]
21 | 85.0% | Cc1cc(C=C2C(=O)Nc3c(Br)cc(Br)cc32)sc1C [10721/A04]
22 | 30.0% | Cc1c(Br)ccc2c1C(=Cc1ncc[nH]1)C(=O)N2 [10720/C11]
23 | 3.1% | COc1ccc(C=C2C(=O)Nc3ccc(S(=O)(=O)Nc4ccc(C(F)(F)F)cc4)cc32)c(OC)c1 [10719/E04]
24 | 2.9% | CC(C)(C)c1cc(C=C2C(=O)Nc3ccc(S(=O)(=O)Nc4ccc(C(F)(F)F)cc4)cc32)cc(C(C)(C)C)c1OCc1ccccc1 [10733/E05]
25 | 2.2% | COc1ccc(C=C2C(=O)Nc3ccc(S(=O)(=O)Nc4ccc(C(F)(F)F)cc4)cc32)cc1C(C)(C)C [10732/E05]

Row | Met Kinase % Inhibition | Structure (SMILES)
26 | 2.3% | O=C1Nc2ccc(CCCl)cc2C1=Cc1cc2ccccc2o1 [10724/G07]
27 | 5.1% | CC(C)(C)c1cc(C=C2C(=O)Nc3ccc(CCCl)cc32)ccc1O [10721/G09]
28 | 29.0% | O=C1Nc2c(Br)cc(Br)cc2C1=Cc1ccccc1Sc1ccc(Cl)cc1 [10727/A05]
29 | −13.6% | CNS(=O)(=O)c1ccc2c(c1)C(=Cc1cc3ccccc3nc1Cl)C(=O)N2 [10730/D08]
30 | 27.0% | Cc1c(O)ccc(C=C2C(=O)Nc3ccc(CCCl)cc32)c1O [10718/G09]
31 | 91.0% | Cc1[nH]c(C=C2C(=O)Nc3ccc(I)cc32)c(Br)c1Br [10717/B11]
32 | 9.7% | N#Cc1cccc(C=C2C(=O)Nc3c(Br)cc(Br)cc32)c1 [10727/A08]
33 | 70.0% | Cn1cccc1C=C1C(=O)Nc2ccc(I)cc21 [10717/B04]
34 | 68.0% | COc1ccc(Br)c(C=C2C(=O)Nc3c(Br)cc(Br)cc32)c1O [10725/A03]
35 | 78.0% | O=C1Nc2ccc(I)cc2C1=CC(c1cccs1)C(F)(F)F (stereo not drawn) [10732/B02]
36 | 24.0% | O=C1Nc2ccc(CCCl)cc2C1=Cc1ccc(O)cc1 [10719/G07]
37 | 27.0% | COc1ccc2[nH]cc(C=C3C(=O)Nc4ccc(S(=O)(=O)Nc5ccc(C(F)(F)F)cc5)cc43)c2c1 [10731/E09]
38 | 4.1% | COc1c(C)cc(C=C2C(=O)Nc3ccc(Br)c(C)c32)cc1C [10733/C06]
39 | 80.0% | CN(C)c1ccc(C=C2C(=O)Nc3ccc(S(=O)(=O)Nc4ccc(C(F)(F)F)cc4)cc32)cc1 [10719/E08]
40 | 25.0% | Cc1c(Br)ccc2c1C(=Cc1cccn1C)C(=O)N2 [10717/C04]
41 | 6.0% | O=C1Nc2ccc(S(=O)(=O)N3CCOCC3)cc2C1=Cc1ccccc1Sc1ccc(Cl)cc1 [10727/F05]
42 | 7.9% | Cn1c(C=C2C(=O)Nc3ccc(CCCl)cc32)nc2ccccc21 [10721/G02]
43 | 52.0% | CCN(CC)c1ccc(C=C2C(=O)Nc3c(Br)cc(Br)cc32)cc1 [10727/A02]
44 | 86.0% | CC(C)c1ccc2occ(C=C3C(=O)Nc4ccc(I)cc43)c(=O)c2c1 [10731/B05]
45 | 18.0% | O=C1Nc2ccc(S(=O)(=O)Nc3ccc(C(F)(F)F)cc3)cc2C1=Cc1c(F)cc(F)cc1F [10720/E02]
46 | 17.0% | C=C(C)C1CC=C(C=C2C(=O)Nc3ccc(S(=O)(=O)N4CCOCC4)cc32)CC1 (stereo not drawn) [10731/F04]
47 | 42.0% | CNS(=O)(=O)c1ccc2c(c1)C(=Cc1cc(C(C)(C)C)cc(C(C)(C)C)c1O)C(=O)N2 [10723/D11]
48 | 43.0% | CC(C)(C)c1cc(C=C2C(=O)Nc3ccc(CCCl)cc32)cc([N+](=O)[O-])c1O [10722/G02]
49 | 53.0% | Cc1ccc2occ(C=C3C(=O)Nc4c(Br)cc(Br)cc43)c(=O)c2c1 [10731/A06]
50 | 94.0% | O=C1Nc2ccc(S(=O)(=O)N3CCOCC3)cc2C1=Cc1cc(O)c(O)c(Br)c1 [10723/F04]

Row | Met Kinase % Inhibition | Structure (SMILES)
51 | 23.0% | CC(C)(C)c1cc(C=C2C(=O)Nc3c(Br)cc(Br)cc32)ccc1O [10721/A09]
52 | −2.1% | CC(C)(C)c1cc(C=C2C(=O)Nc3ccc(S(=O)(=O)Nc4ccc(C(F)(F)F)cc4)cc32)ccc1OCc1ccccc1 [10732/E06]
53 | 8.2% | CC(C)c1cc(C=C2C(=O)Nc3ccc(S(=O)(=O)Nc4ccc(C(F)(F)F)cc4)cc32)cc(C(C)C)c1Oc1ccccc1 [10732/E04]
54 | 81.0% | O=C1Nc2ccc(S(=O)(=O)Nc3ccc(C(F)(F)F)cc3)cc2C1=Cc1cc([N+](=O)[O-])cc(CCl)c1O [10721/E06]
55 | 8.8% | COc1cccc(OC)c1C=C1C(=O)Nc2ccc(CCCl)cc21 [10728/G03]
56 | 26.0% | Cc1cc(C=C2C(=O)Nc3ccc(S(=O)(=O)N4CCOCC4)cc32)sc1C [10721/F04]
57 | 71.0% | O=C1Nc2ccc(CCCl)cc2C1=Cc1ccc([N+](=O)[O-])c(O)c1 [10724/G04]
58 | −10.4% | O=C1Nc2ccc(S(=O)(=O)Nc3ccc(C(F)(F)F)cc3)cc2C1=Cc1ncc[nH]1 [10720/E11]
59 | 52.0% | CCN(CC)c1ccc(C=C2C(=O)Nc3ccc(S(=O)(=O)N4CCOCC4)cc32)cc1 [10727/F02]
60 | −11.6% | Cc1c(Br)ccc2c1C(=Cc1coc3ccc([N+](=O)[O-])cc3c1=O)C(=O)N2 [10731/C07]
61 | 9.3% | N#Cc1ccc(C=C2C(=O)Nc3ccc(S(=O)(=O)N4CCOCC4)cc32)cc1 [10727/F09]
62 | 55.0% | CCOc1cccc(C=C2C(=O)Nc3ccc(S(=O)(=O)N4CCOCC4)cc32)c1O [10734/F02]
63 | 9.4% | O=C1Nc2c(Br)cc(Br)cc2C1=Cc1ccc[nH]1 [10717/A09]
64 | 84.0% | O=C1Nc2ccc(S(=O)(=O)Nc3ccc(C(F)(F)F)cc3)cc2C1=Cc1cc(O)c2c(c1O)CCCC2 [10726/E07]
65 | −22.0% | COc1cc(OC)c(C=C2C(=O)Nc3ccc(S(=O)(=O)N4CCOCC4)cc32)c(OC)c1 [10719/F06]
66 | 41.0% | CNS(=O)(=O)c1ccc2c(c1)C(=Cc1ccc(C(F)(F)F)cc1)C(=O)N2 [10722/D11]
67 | 4.7% | COC(=O)Cc1c(Cl)[nH]c(C=C2C(=O)Nc3ccc(CCCl)cc32)c1C(=O)OC [10725/G09]
68 | −8.2% | COc1ccc(C=C2C(=O)Nc3ccc(CCCl)cc32)c(OC)c1 [10719/G04]
69 | 4.4% | Cc1c(Br)ccc2c1C(=Cc1ccco1)C(=O)N2 [10718/C10]
70 | 63.0% | COc1c(I)cc(C=C2C(=O)Nc3ccc(CCCl)cc32)cc1C(C)(C)C [10732/G11]
71 | 28.0% | Cc1c(Br)ccc2c1C(=Cc1ccc(N3CCOCC3)cc1)C(=O)N2 [10725/C08]
72 | 7.1% | COc1ccc(OC)c(C=C2C(=O)Nc3ccc(CCCl)cc32)c1 [10728/G02]
73 | 9.6% | CNS(=O)(=O)c1ccc2c(c1)C(=Cc1ccc(OC)cc1)C(=O)N2 [10726/D11]
74 | 51.0% | CNS(=O)(=O)c1ccc2c(c1)C(=Cc1cc(OC)ccc1O)C(=O)N2 [10720/D10]
75 | 8.7% | O=C1Nc2ccc(S(=O)(=O)N3CCOCC3)cc2C1=Cc1ccc(F)cc1C(F)(F)F [10719/F11]
